According to ChEMBL document CHEMBL5321195, “Exploring the Effect of Halogenation in a Series of Potent and Selective A2B Adenosine Receptor Antagonists” (J Med Chem, 2023):
Values after ≈ are worked out from the molar mass of the structure shown. Active and inactive are the calls of the source. The rule behind the calls is not given here.

How the values were obtained:
[1] = target: T1, Adenosine receptor A2b (Homo sapiens) (UniProt P29275); test: Antagonist activity against N-terminal pRK5/SNAP-tagged human A2BAR transfected in HEK293T cells assessed as reduction in NECA-induced change in cellular impedence by measuring AUC measured for 45 mins; format: functional, cell-based; settings: filed as antagonist
T1 sequence (whole entry): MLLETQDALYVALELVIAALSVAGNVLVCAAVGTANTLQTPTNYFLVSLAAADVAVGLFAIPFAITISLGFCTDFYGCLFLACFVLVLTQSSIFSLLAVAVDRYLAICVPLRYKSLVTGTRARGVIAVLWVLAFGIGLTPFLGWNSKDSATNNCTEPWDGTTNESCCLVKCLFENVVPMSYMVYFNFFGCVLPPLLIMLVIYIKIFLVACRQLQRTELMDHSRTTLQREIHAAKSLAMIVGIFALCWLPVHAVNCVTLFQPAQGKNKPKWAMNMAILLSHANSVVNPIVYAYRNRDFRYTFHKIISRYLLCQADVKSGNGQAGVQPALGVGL

Cytochrome P450 3A4 [2] = target: T2, Cytochrome P450 3A4 (Homo sapiens, UniProt P08684); test: Inhibition of CYP3A4 (unknown origin) using 7-BFC as substrate preincubated for 5 mins followed by substrate addition by fluorescence based assay; format: ADME
[3] = Immunostimulatory effect on anti-CD3/CD28 antibodies/IL-2-activated human PBMC cells assessed as reversal of ADO-mediated inhibition of cell proliferation at 15 uM incubated for 3 days by CFSE dye based flow cytometry (reference value: 3.55 %); format: functional; parameters: scale not given: the % may be the effect or the level left; settings: time 3 day
[4] = target: T3, Adenosine receptor A1 (Homo sapiens) (UniProt P30542); test: Displacement of [3H]DPCPX from human A1AR expressed in CHO cell membrane at 1 uM incubated for 60 mins by competitive binding assay relative to control; format: cell membranes
T3 sequence (whole entry): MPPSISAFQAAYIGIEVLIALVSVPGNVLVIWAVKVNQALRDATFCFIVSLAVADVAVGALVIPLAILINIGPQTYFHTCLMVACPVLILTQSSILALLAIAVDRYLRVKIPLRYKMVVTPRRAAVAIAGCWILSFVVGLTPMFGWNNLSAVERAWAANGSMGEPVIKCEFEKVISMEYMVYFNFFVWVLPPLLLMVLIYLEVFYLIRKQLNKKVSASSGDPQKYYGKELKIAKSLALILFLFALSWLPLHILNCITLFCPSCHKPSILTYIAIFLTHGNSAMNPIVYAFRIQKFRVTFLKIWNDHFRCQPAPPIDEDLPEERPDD

[5] = target: T4, Adenosine receptor A3 (Homo sapiens) (UniProt P0DMS8); test: Displacement of [3H]NECA from human A3AR expressed in human HeLa cell membrane at 1 uM incubated for 180 mins by competitive binding assay relative to control; format: cell membranes
T4 sequence (whole entry): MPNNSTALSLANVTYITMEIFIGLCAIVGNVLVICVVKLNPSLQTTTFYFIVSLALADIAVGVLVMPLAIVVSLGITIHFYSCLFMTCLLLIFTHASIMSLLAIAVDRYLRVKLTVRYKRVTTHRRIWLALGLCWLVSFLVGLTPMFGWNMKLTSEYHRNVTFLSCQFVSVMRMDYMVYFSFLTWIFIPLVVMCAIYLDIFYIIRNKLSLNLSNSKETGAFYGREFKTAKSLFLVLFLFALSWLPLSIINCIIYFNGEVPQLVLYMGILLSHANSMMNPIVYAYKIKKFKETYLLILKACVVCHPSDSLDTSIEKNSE

[6] = Solubility of compound in 1:99 DMSO/PBS incubated for 4 hrs; format: physicochemical
Cytochrome P450 3A4 [7] = target: T2, Cytochrome P450 3A4
Description: Inhibition of CYP3A4 (unknown origin) using DBF as substrate preincubated for 5 mins followed by substrate addition by fluorescence based assay

[8] = target: Adenosine receptor A2a (Homo sapiens) (UniProt P29274); test: Displacement of [3H]DPCPX from human A2AAR expressed in human HeLa cell membrane at 1 uM incubated for 30 mins by competitive binding assay relative to control; format: cell membranes
Chain of Adenosine receptor A2a (Homo sapiens) (P29274 whole entry): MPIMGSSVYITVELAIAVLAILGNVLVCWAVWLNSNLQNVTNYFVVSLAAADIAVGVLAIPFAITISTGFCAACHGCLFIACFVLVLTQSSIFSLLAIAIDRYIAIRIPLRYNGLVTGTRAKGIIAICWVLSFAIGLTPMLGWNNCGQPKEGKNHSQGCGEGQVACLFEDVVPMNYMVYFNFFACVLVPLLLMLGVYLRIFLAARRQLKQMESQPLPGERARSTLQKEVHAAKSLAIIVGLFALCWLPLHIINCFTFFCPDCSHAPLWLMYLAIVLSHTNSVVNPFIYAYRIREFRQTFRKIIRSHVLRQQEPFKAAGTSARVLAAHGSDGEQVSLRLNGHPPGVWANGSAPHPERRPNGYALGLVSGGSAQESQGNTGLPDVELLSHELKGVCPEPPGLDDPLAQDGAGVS

T2 sequence (P08684 whole entry): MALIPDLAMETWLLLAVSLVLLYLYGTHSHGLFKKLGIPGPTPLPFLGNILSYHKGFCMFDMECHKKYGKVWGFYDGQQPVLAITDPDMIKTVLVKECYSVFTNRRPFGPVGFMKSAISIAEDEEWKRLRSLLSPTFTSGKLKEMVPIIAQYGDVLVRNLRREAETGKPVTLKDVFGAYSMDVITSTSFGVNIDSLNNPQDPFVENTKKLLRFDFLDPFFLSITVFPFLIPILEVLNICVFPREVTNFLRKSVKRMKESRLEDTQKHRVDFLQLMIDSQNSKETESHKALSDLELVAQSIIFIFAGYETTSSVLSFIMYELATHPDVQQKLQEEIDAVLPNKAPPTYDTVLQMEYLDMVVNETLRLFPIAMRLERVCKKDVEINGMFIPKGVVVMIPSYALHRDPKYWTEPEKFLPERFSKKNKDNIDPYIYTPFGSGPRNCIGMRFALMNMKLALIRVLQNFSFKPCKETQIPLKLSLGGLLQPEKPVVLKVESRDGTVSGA

| Activity [1] | IC50 (Cytochrome P450 3A4 [2]) | solubility kinetic at 4 h [6] | Activity [8] | SMILES | also measured |
| --- | --- | --- | --- | --- | --- |
| Active | > 10 µM |  |  | CC1=C(C(=O)OC(C)C)C(c2ccco2)n2c(nc3cc(Br)ccc32)N1 (racemic) |  |
| Active | > 10 µM |  |  | CC1=C(C(=O)OC(C)C)C(c2ccco2)n2c(nc3cc(Cl)ccc32)N1 (racemic) | Activity [3]: 6.64% |
| Active |  |  |  | CCOC(=O)C1=C(C)Nc2nc3cc(Br)ccc3n2C1c1ccoc1 (racemic) |  |
|  |  |  |  | CCOC(=O)C1=C(C)Nc2nc3ccccc3n2C1c1cocn1 (centres undefined) | Activity [4]: 5%; Activity [5]: 7% |
|  |  | 0.2 µM (≈ 0.105 µg/mL) |  | CCCn1c(=O)[nH]c2[nH]c(-c3ccc(S(=O)(=O)C4CCC(c5ccc(Cl)cc5)CC4)cc3)nc2c1=O (centres undefined) |  |
|  |  |  |  | CCOC(=O)C1=C(C)Nc2nc3cc(Br)ccc3n2[C@H]1c1ccoc1 | Activity [5]: 10% |
|  |  | 25.2 µM (≈ 8.5 µg/mL) |  | CC1=C(C(=O)OC(C)C)C(c2ccco2)n2c(nc3ccccc32)N1 (centres undefined) |  |
| Active | > 10 µM |  |  | CC1=C(C(=O)OC(C)C)C(c2ccco2)n2c(nc3cc(F)ccc32)N1 (racemic) | IC50 (Cytochrome P450 3A4 [7]): > 10 µM |
|  |  |  | 12% | CCOC(=O)C1=C(C)Nc2nc3cc(Br)ccc3n2[C@@H]1c1ccoc1 |  |
|  | > 10 µM |  |  | CC1=C(C(=O)OC(C)C)C(c2ccco2)n2c(nc3cc(F)c(F)cc32)N1 (racemic) | IC50 (Cytochrome P450 3A4 [7]): > 10 µM |
|  |  | 26.1 µM (≈ 8.81 µg/mL) | 23% | CC1=C(C(=O)OC(C)C)C(c2ccoc2)n2c(nc3ccccc32)N1 (centres undefined) |  |
|  |  | 39.7 µM (≈ 13.4 µg/mL) | 19% | CC1=C(C(=O)OC(C)C)C(c2cocn2)n2c(nc3ccccc32)N1 (centres undefined) | Activity [4]: 7%; Activity [5]: 16% |
|  |  |  | 14% | CC1=C(C(=O)OC(C)C)[C@@H](c2ccco2)n2c(nc3cc(Br)ccc32)N1 |  |
